From patent publication US5973114A, “Isolation and characterization of the growth hormone releasing hormone receptor” (priority 1992, dated 1999)
Entries after “also recorded” stand apart in the source; their conditions may differ. Values belong to the molecule of their own block, whether it stands above or below them.

Legend:
GHRH receptor (GHRH-R) = assay: 125I-GHRHa binding assay in crude ovine pituitary membrane pellets; details: for displacement of photoprobe binding to membrane pellets: both photoprobes; for competition for the 125I-GHRHa binding site: 100 nM competitor
Protocol: Specific binding is defined as the difference in the binding seen with 20 pM iodinated analog alone and binding of the analog in the presence of 10 nM non-iodinated GHRHa.
All steps were performed at 4° C. Frozen ovine or bovine anterior pituitaries (ovine: approximately 1 gm/pituitary obtained from Dr. Iain Clarke, Melbourne, Australia; bovine: approximately 2.5 gm/pituitary special handling from Pel-Freez, of Rogers, Ak.) were washed of blood, cleaned of connective tissue and homogenized (using a Dounce homogenizer) in 50 mM HEPES buffer, 100 mM NaCl, 10 mM EDTA, 0.1 μM EGTA, pH 7.4 with 0.5 mM PMSF (phenyl methyl sulfonyl fluoride), 10 μg/ml leupeptin, 10 μg/ml pepstatin A, and 200 U/ml (units/ml) aprotinin. This buffer is used to remove endogenous GTP which might be bound to G proteins and to restore high affinity binding. The homogenate was spun at top speed in a microfuge and the supernatant discarded. The upper (membrane) layer of the pellet was then gently resuspended in binding buffer containing 50 mM Tris buffer, 5 mM EGTA, 5 mM MgCl2, 50 μg/ml alamethicin, 30 μg/ml bacitracin and other protease inhibitors as above.
1/50 pituitary equivalent per tube was incubated in binding buffer with approximately 100,000 counts of iodinated probe in a volume of 500 μl at room temperature for 1 hour. The total counts delivered and the percent of counts bound for each tube was determined with 3 to 6 replicates per experimental condition. Saturation binding profiles were analyzed with the computer program Ligand which performs a statistically weighted least squares fit to the exact ligand binding equation in nontransformed coordinates.

GHRH-R (55 kDa band) = assay: photoaffinity cross-linking of the 55 kDa GHRH-R band, SDS-PAGE autoradiography; format: binding, ovine; details: 125I-GHRHa-ANB-NOS probe
Protocol: Photoprobe binding in ovine pituitary membrane pellets was determined by γ-counting and UV induced cross-linking was examined by autoradiagraphy of sodium dodecylsulfate polyacrylamide electrophoresis (SDS-PAGE) gels. ^125 I-GHRHa -ANB-NOS probe bound with an affinity of about one nanomole, nM (compared to about 160 picomole, pM, for GHRHa).
Photoprobe binding to membranes was evaluated with crude membrane binding assay and then analyzed further by SDS-PAGE electrophoresis to identify the binding sites. Photoprobes were incubated in the dark, photolysed for 10 minutes with a long wave (366 nm) UV lamp, and then the samples were pelleted. The pellets were counted and then extracted by boiling directly in SDS sample buffer (total SDS extracts). Alternatively, the labeled pellets were extracted in a mild detergent solution (5 mM CHAPS) centrifuged, and the chloroform/methanol concentrated supernatants denatured with SDS buffer (CHAPS extracts). These samples were then electrophoresed in SDS gels and autoradiographed.

[1] = molecular target: T1, secretin and VIP receptors (Homo sapiens, UniProt P47872); details: 10 μM; human pancreas; cited from earlier work
T1 construct: host or cells: human pancreas
T1 sequence (P47872 23-440): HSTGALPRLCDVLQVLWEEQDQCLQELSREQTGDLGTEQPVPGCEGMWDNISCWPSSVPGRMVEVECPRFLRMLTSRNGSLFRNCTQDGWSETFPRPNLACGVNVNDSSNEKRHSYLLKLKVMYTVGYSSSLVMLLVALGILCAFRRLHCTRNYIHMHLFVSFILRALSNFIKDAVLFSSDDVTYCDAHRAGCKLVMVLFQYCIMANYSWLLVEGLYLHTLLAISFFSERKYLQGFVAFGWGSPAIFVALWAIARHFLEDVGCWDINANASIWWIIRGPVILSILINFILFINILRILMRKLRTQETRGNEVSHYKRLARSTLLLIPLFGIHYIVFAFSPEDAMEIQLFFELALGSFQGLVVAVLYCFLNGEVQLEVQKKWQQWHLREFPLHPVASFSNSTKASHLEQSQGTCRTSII

Molecule: GHRH(1-29)-NH2
inhibition of 125I-secretin binding [1]: 20%

Molecule: vasoactive intestinal peptide [VIP]
competition for the 125I-GHRHa binding site (GHRH receptor (GHRH-R)): did not compete; also recorded: no competition
inhibition of 125I-secretin binding [1]: 20%
effect on the 55 kDa cross-linked band (GHRH-R (55 kDa band); 100 nM VIP): unaffected

Molecule: pituitary adenylate cyclase activating peptide [PACAP]
competition for the 125I-GHRHa binding site (GHRH receptor (GHRH-R)): did not compete; also recorded: no competition

Second part, led by results:

displacement of photoprobe binding to membrane pellets (GHRH receptor (GHRH-R); 10 nM GHRHa): totally displaced
Kd (GHRH receptor (GHRH-R); crude ovine pituitary membrane pellets, program Ligand, read-out: Kd, saturation binding to a single high affinity site): ~0.16 nM
Molecule: [His^1, Nle^27 ]-GHRH-(1-32)-NH2 [GHRHa]
effect on the 55 kDa cross-linked band (GHRH-R (55 kDa band); 10 nM GHRHa): completely eliminated

displacement of photoprobe binding to membrane pellets (GHRH receptor (GHRH-R); 50 μM GTPγS): partially displaced
Molecule: Nc1nc2c(ncn2[C@@H]2O[C@H](COP(=O)(O)OP(=O)(O)OP(O)(O)=S)[C@@H](O)[C@H]2O)c(=O)[nH]1 [GTPγS]
reduction of the 55 kDa cross-linked band (GHRH-R (55 kDa band); 50 μM GTPγS): over 50%

effect on specific binding in the GHRH assay (GHRH receptor (GHRH-R); preincubation with 1 mM DTT): completely eliminated
Molecule: O[C@H](CS)[C@H](O)CS (racemic) [DTT, dithiothreitol]
